Earlier results on three compounds are cited in patent US6746695B1, “Pharmaceutical preparations of bioactive substances extracted from natural sources” (Armadillo Pharmaceuticals, Inc., priority 1998, dated 2004).

For data set [1] the following is noted: mice.
The conditions of data set [2]: rats.
The conditions of data set [3]: Dogs.
For data set [4] the following is noted: chickens.
The target in another data set is T1, prostoglandin synthetase (Bos taurus, UniProt O62664).
T1 construct: prostoglandin synthetase prepared from bovine seminal vesicles; from tissue; host or cells: bovine seminal vesicles
T1 sequence (O62664 25-600): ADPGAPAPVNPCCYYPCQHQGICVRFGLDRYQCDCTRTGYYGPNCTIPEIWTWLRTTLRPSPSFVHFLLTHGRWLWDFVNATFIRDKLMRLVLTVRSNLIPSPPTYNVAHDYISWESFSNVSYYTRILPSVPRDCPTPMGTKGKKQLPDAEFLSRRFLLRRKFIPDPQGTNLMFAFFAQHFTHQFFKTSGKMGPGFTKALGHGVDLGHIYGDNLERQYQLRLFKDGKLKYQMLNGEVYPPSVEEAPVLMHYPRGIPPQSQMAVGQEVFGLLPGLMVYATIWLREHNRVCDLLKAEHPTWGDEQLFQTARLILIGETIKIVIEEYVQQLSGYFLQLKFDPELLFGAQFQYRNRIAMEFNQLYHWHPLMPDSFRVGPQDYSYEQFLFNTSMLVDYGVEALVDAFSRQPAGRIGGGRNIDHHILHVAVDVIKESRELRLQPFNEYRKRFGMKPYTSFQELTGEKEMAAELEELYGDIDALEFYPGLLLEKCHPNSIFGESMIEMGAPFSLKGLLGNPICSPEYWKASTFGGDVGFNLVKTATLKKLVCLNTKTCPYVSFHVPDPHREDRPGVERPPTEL
To be noted: enzyme prepared from bovine seminal vesicles; compared with aspirin.

Read-outs that look alike come from different tables or passages of the source.

As to `CO[C@H]1[C@@H](OC)C[C@@H](O[C@@H]2O[C@H](CO)[C@@H](O)[C@H](O)[C@H]2O)/C(=C\C#N)[C@@H]1O` [Simmondsin], the food intake entry in data set [1], in data set [2] and in data set [4] was “reducing food intake” in each case. Also, the weight reduction result in data set [3] is given as “useful weight reduction agent”.

Regarding `COc1cc2c(cc1OC)[C@@H]1C[C@H](C[C@H]3CCCCN31)OC(=O)/C=C\c1ccc(O)c-2c1` [cryogenine], at prostoglandin synthetase, the “potency as inhibitor of prostoglandin synthetase relative to aspirin” value was “more than twice as potent as aspirin”.

Turning to `COc1ccc2c(c1OC)-c1cc(ccc1O)/C=C\C(=O)O[C@H]1C[C@@H]3CCCCC3[C@H]2C1` (stereo partly drawn) [nesodine], the “potency as inhibitor of prostoglandin synthetase relative to aspirin” value at prostoglandin synthetase is recorded as “more than twice as potent as aspirin”.
